EC50, IC50 and AC50 data for 14 compounds are collected here from patent publication US12590062B2, “PD-1/PD-L1 inhibitors” (Gilead Sciences, Inc., priority 2017, dated 2026).

In general, EC50 refers to the midpoint of the concentration-response curve. Usually IC50 stands for the midpoint of a concentration-inhibition curve. In general, AC50 refers to the concentration at which the activity in the assay is half-maximal.

In assay [1] the target is T1, interaction between the recombinant extracellular domain (ECD) of PD-1 and native cell-bound PD-L1 (Homo sapiens, UniProt Q9NZQ7).
T1 construct: expressed in transfected cells
T1 sequence (Q9NZQ7 19-290): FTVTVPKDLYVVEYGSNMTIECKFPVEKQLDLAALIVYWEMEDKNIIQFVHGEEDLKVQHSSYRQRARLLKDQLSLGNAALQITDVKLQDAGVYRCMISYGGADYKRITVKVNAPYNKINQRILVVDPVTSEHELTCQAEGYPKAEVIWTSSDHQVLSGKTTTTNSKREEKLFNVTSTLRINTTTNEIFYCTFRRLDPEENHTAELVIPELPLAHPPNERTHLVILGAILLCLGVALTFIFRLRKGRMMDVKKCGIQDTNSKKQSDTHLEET
Nature of the assay: CHO/PD-L1 cell capture assay. It counts as cell-based. The conditions noted are these: CHO cells overexpressing PD-L1, pre-incubated 1 hr with compound, captured on biotinylated Fc-PD-1 coated plates, 75 min at room temperature. Summed up:
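CHO cells stably overexpressing PD-L1 were pre-incubated 1 hr with compound, then captured 75 min at room temperature on biotinylated Fc-PD-1 ECD bound to streptavidin plates. After glutaraldehyde/Draq5 fixation-staining, captured cells were counted by high-content microscopy; EC50 from four-parameter dose-response fits.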

In the next assay the target is PD-1/PD-L1 (Homo sapiens, UniProt Q9NZQ7). Nature of the assay: PD-1/PD-L1 biochemical protein-protein interaction assay (ALPHA). It counts as binding. The conditions noted are these: 0.3 nM His tagged PD-L1, 2.5 nM biotinylated Fc-PD-1, 60 minutes at 25° C., read-out: IC50 PD-L1-PD-1 Alpha IC50-mono PD-L1-fcP-D1. In short, it runs like this:
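Compounds are tested for blocking the PD-1/PD-L1 extracellular-domain interaction using an ALPHA bead assay, in which inhibition lowers the luminescent signal. Reactions run 60 min at 25° C with 0.3 nM His-PD-L1 and 2.5 nM biotinylated Fc-PD-1. IC50 values come from four-parameter fits.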

The target of another assay is T2, PD-1/PD-L1 interaction (Homo sapiens, UniProt Q9NZQ7).
T2 construct: expressed in transfected cells; host or cells: CHO cells (aAPC-PD-L1) co-cultured with Jurkat cells overexpressing PD-1 and an NFAT-luciferase reporter
T2 sequence (Q9NZQ7 19-290): as above
Nature of the assay: PD-1/PD-L1 NFAT reporter co-culture assay. The assay is classed as cell-based. The conditions noted are these: Jurkat PD-1 NFAT-luciferase cells co-cultured with aAPC-PD-L1 CHO cells, 6 hrs at 37° C.; read-out: EC50 NFAT Luciferase. In short, it runs like this:
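First, CHO cells displaying anti-CD3 antibody and PD-L1 were plated overnight. Next, compound-treated PD-1 Jurkat NFAT-luciferase reporter cells in 2% FBS RPMI were added for 6 h at 37 °C. Finally, ONE-Glo luminescence was read and EC50 values fitted with a four-parameter equation.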

A further assay has as its target T3, PD-L1 (Homo sapiens, UniProt Q9NZQ7).
T3 construct: determine if they can specifically dimerize the extracellular domains of PD-L1
Briefly: PD-L1/PD-L1 dimerization biochemical protein-protein interaction assay (ALPHA). It counts as binding. The conditions noted are these: compound-induced PD-L1 dimerization, head prints '1 nM' (0.5 nM His-tagged PD-L1 and 0.5 nM FLAG-tagged PD-L1), read-out: AC50 PDL1 Dimer Alpha 1 nM. Summed up: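 ALPHA proximity assay of compound-induced dimerization of 0.5 nM His-tagged and 0.5 nM FLAG-tagged PD-L1 extracellular domains in Hepes pH 7.4 buffer, 2 h at 25 °C. Anti-His acceptor then anti-FLAG donor beads, 60 min each; AC50 from four-parameter fit.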

T3 sequence (Q9NZQ7 19-238 limits assumed): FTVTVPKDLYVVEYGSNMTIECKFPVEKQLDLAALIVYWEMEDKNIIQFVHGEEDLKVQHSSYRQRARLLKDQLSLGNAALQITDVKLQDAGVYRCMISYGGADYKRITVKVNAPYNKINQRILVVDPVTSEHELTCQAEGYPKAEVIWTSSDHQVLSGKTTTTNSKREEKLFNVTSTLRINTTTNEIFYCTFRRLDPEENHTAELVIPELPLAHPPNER
T3 sequence (Q9NZQ7 19-238 limits assumed): as above
Chain of PD-1/PD-L1 (Q9NZQ7 19-238 limits assumed): as above

Regarding `N#Cc1cncc(COc2nc(O[C@H]3CCc4c(-c5cccc6c5CC[C@@H]6Oc5nc(OCc6cncc(C#N)c6)c(CNC[C@@H](O)CC(=O)O)cc5Br)cccc43)c(Br)cc2CNC[C@@H](O)CC(=O)O)c1` [Example 4, (3S,3′S)-4,4′-((((((1S,1′S)-2,2′,3,3′-tetrahydro-1H,1′H-[4,4′-biindene]-1,1′-diyl)bis(oxy))bis(5-bromo-2-((5-cyanopyridin-3-yl)methoxy)pyridine-6,3-diyl))bis(methylene))bis(azanediyl))bis(3-hydroxybutanoic acid)], the 50% effective concentration (EC50) in assay [1] was determined as 15.6 nM; on PD-1/PD-L1 interaction, 17 nM. The IC50 on PD-1/PD-L1 is 0.1 nM. Also, on PD-L1, the AC50 is 67.2 nM.
Taken in the same sequence, the figures for `COc1nc(O[C@H]2CCc3c(-c4cccc5c4CC[C@@H]5Oc4nc(OC)c(CNC[C@@H](O)CC(=O)O)cc4Cl)cccc32)c(Cl)cc1CNC[C@@H](O)CC(=O)O` [Example 6, (3S,3′S)-4,4′-((((((1S,1′S)-2,2′,3,3′-tetrahydro-1H,1′H-[4,4′-biindene]-1,1′-diyl)bis(oxy))bis(5-chloro-2-methoxypyridine-6,3-diyl))bis(methylene))bis(azanediyl))bis(3-hydroxybutanoic acid)] were 63.8 nM, 148 nM, 0.1 nM and 90.9 nM.
For `COc1nc(O[C@H]2CCc3c(-c4cccc5c4CC[C@@H]5Oc4nc(OC)c(CNC[C@@H](O)CC(=O)O)cc4Br)cccc32)c(Br)cc1CNC[C@@H](O)CC(=O)O` [Example 7, (3S,3′S)-4,4′-((((((1S,1′S)-2,2′,3,3′-tetrahydro-1H,1′H-[4,4′-biindene]-1,1′-diyl)bis(oxy))bis(5-bromo-2-methoxypyridine-6,3-diyl))bis(methylene))bis(azanediyl))bis(3-hydroxybutanoic acid)], in that order: 56 nM, 89 nM, 0.1 nM and 140 nM.
For `Cc1c(COc2cc(OCc3cncc(C#N)c3)c(CNC[C@@H](O)CC(=O)O)cc2Cl)cccc1-c1cccc(-c2ccc(OCCNC[C@@H](O)CC(=O)O)cc2)c1C` [Example 16, (S)-4-((4-((4″-(2-(((S)-3-carboxy-2-hydroxypropyl)amino)ethoxy)-2,2′-dimethyl-[1,1′:3′,1″-terphenyl]-3-yl)methoxy)-5-chloro-2-((5-cyanopyridin-3-yl)methoxy)benzyl)amino)-3-hydroxybutanoic acid], in that order: 6 nM, 88 nM, 0.1 nM and 100 nM.
As for `Cc1c(COc2nc(OCCc3cncnc3)c(CNC[C@@H](O)CC(=O)O)cc2Br)cccc1-c1cccc(COc2nc(OCCc3cncnc3)c(CNC[C@@H](O)CC(=O)O)cc2Br)c1C` [Example 127, (3S,3′S)-4,4′-((((((2,2′-dimethyl-[1,1′-biphenyl]-3,3′-diyl)bis(methylene))bis(oxy))bis(5-bromo-2-(2-(pyrimidin-5-yl)ethoxy)pyridine-6,3-diyl))bis(methylene))bis(azanediyl))bis(3-hydroxybutanoic acid)], the EC50 in assay [1] is 68.6 nM; at PD-1/PD-L1 interaction, 193 nM. At PD-1/PD-L1, the IC50 is 0.2 nM. In addition, on PD-L1, the AC50 stood at 166 nM.
For `Cc1c(COc2nc(OCC3COC3)c(CNC[C@@H](O)CC(=O)O)cc2Br)cccc1-c1cccc(COc2nc(OCC3COC3)c(CNC[C@@H](O)CC(=O)O)cc2Br)c1C` [Example 132, (3S,3′S)-4,4′-((((((2,2′-dimethyl-[1,1′-biphenyl]-3,3′-diyl)bis(methylene))bis(oxy))bis(5-bromo-2-(oxetan-3-ylmethoxy)pyridine-6,3-diyl))bis(methylene))bis(azanediyl))bis(3-hydroxybutanoic acid)], in that order: 194 nM, 391 nM, 0.3 nM and 279 nM.
Take `Cc1c(COc2cc(OCc3cncc(C#N)c3)c(CNC[C@H](O)CC(=O)O)cc2Cl)cccc1-c1cccc(COc2cc(OCc3cncc(C#N)c3)c(CNC[C@H](O)CC(=O)O)cc2Cl)c1C` [Example 162, (3R,3′R)-4,4′-((((((2,2′-dimethyl-[1,1′-biphenyl]-3,3′-diyl)bis(methylene))bis(oxy))bis(5-chloro-2-((5-cyanopyridin-3-yl)methoxy)-4,1-phenylene))bis(methylene))bis(azanediyl))bis(3-hydroxybutanoic acid)]: the EC50 in assay [1] was 263 nM; at PD-1/PD-L1 interaction it was 160 nM. Moreover, the IC50 on PD-1/PD-L1 came out at 0.2 nM. At PD-L1, the AC50 turned out to be 236 nM.
Take `COc1nc(OCc2cccc(-c3cccc(COc4nc(OC)c(CNC[C@@H](O)C(=O)O)cc4Cl)c3C)c2C)c(Cl)cc1CNC[C@@H](O)C(=O)O` [Example 167, (2R,2′R)-3,3′-((((((2,2′-dimethyl-[1,1′-biphenyl]-3,3′-diyl)bis(methylene))bis(oxy))bis(5-chloro-2-methoxypyridine-6,3-diyl))bis(methylene))bis(azanediyl))bis(2-hydroxypropanoic acid)]: the figures for the EC50 (in assay [1]; at PD-1/PD-L1 interaction) were 62.3 nM and 109 nM, respectively. The IC50 at PD-1/PD-L1 was determined as 2.2 nM. For the same compound, the AC50 on PD-L1 was at least 10000 nM.
`COc1nc(OCc2cccc(-c3cccc(COc4nc(OC)c(CNC[C@H](O)CC(=O)O)cc4Br)c3Cl)c2Cl)ccc1CNC[C@H](O)CC(=O)O` [Example 192, (R)-4-(((6-((3′-(((3-Bromo-5-((((R)-3-carboxy-2-hydroxypropyl)amino)methyl)-6-methoxypyridin-2-yl)oxy)methyl)-2,2′-dichloro-[1,1′-biphenyl]-3-yl)methoxy)-2-methoxypyridin-3-yl)methyl)amino)-3-hydroxybutanoic acid]: the results for the EC50 (in assay [1]; on PD-1/PD-L1 interaction) were 31.2 nM and 197 nM, respectively. The AC50 at PD-L1 is 267 nM.
For `Cc1c(COc2cc(OCc3cncc(C#N)c3)c(CNC[C@@H](O)CC(=O)O)cc2Cl)cccc1-c1cccc(-c2ccc3c(cnn3CCNC[C@@H](O)CC(=O)O)c2)c1C` [Example 209, (S)-4-((4-((3′-(1-(2-(((S)-3-carboxy-2-hydroxypropyl)amino)ethyl)-1H-indazol-5-yl)-2,2′-dimethyl-[1,1′-biphenyl]-3-yl)methoxy)-5-chloro-2-((5-cyanopyridin-3-yl)methoxy)benzyl)amino)-3-hydroxybutanoic acid], the EC50 in assay [1] was determined as 13.1 nM; at PD-1/PD-L1 interaction, 73 nM. Further, the AC50 on PD-L1 stood at 70.5 nM.
On to `Cc1c(COc2cc(OCc3cncc(C#N)c3)c(CNC[C@@H](O)CC(=O)O)cc2Cl)cccc1-c1cccc(-c2ccc3sc(CNC[C@@H](O)CC(=O)O)cc3c2)c1C` [Example 211], for which the EC50 in assay [1] is 45.6 nM; at PD-1/PD-L1 interaction, 304 nM. Moreover, at PD-L1, the concentration at half-maximal activity (AC50) was found to be 81.2 nM.
Taken in the same sequence, the figures for `COc1nc(OCc2cccc(-c3cccc(COc4nc(OC)c(CN5CCC[C@H]5C(=O)O)cc4Cl)c3C)c2C)c(Cl)cc1CN1CCC[C@H]1C(=O)O` [Example 232, (2′S)-(((((2,2′-dimethyl-[1,1′-biphenyl]-3,3′-diyl)bis(methylene))bis(oxy))bis(5-chloro-2-methoxypyridine-6,3-diyl))bis(methylene))di-L-proline] were 142 nM, 331 nM and 314 nM.
For `Cc1c(COc2cc(OCc3cncc(C#N)c3)c(CNC[C@@H](O)CC(=O)O)cc2Cl)cccc1-c1cccc(OCc2ccc(CNC[C@@H](O)CC(=O)O)cc2)c1C` [Example 279, (S)-4-((4-(((3′-((4-((((S)-3-carboxy-2-hydroxypropyl)amino)methyl)-2-chloro-5-((5-cyanopyridin-3-yl)methoxy)phenoxy)methyl)-2,2′-dimethyl-[1,1′-biphenyl]-3-yl)oxy)methyl)benzyl)amino)-3-hydroxybutanoic acid], in that order: 27.7 nM, 260 nM and 109 nM.
Regarding `Cc1c(COc2cc(OCc3cncc(C#N)c3)c(CNC(CO)(CO)CO)cc2Cl)cccc1-c1cccc(COc2cc(OCc3cncc(C#N)c3)c(CNC(CO)(CO)CO)cc2Cl)c1C` [Example 282, 5,5′-((((((2,2′-dimethyl-[1,1′-biphenyl]-3,3′-diyl)bis(methylene))bis(oxy))bis(4-chloro-6-(((1,3-dihydroxy-2-(hydroxymethyl)propan-2-yl)amino)methyl)-3,1-phenylene))bis(oxy))bis(methylene))dinicotinonitrile], the EC50 is 254 nM in assay [1] and 463 nM at PD-1/PD-L1 interaction. For the same compound, on PD-L1, the AC50 was determined as 327 nM.
